According to US12473262B2, “Aryl hydrocarbon receptor activators” (Oregon State University, priority 2019, dated 2025):

Target: aryl hydrocarbon receptor (AhR) (Mus musculus (Mouse), UniProt P30561)
Assay: AhR ligand screening: AhRE-luciferase reporter in transfected Hepa1 cells
Assay type: cell-based
Details: for Fold @ 1 nM: fold change of luciferase expression at 1 nM test compound relative to vehicle (0.1% DMSO); for Fold @ 100 nM: fold change of luciferase expression at 100 nM test compound relative to vehicle (0.1% DMSO); for Fold @ 10 uM: fold change of luciferase expression at 10 uM test compound relative to vehicle (0.1% DMSO); for Fold relative to benchmark @ 100 nM: luciferase expression at 100 nM test compound relative to 100 nM benchmark compound 11-cl-BBQ
Source text: The AhR is a ligand-activated transcription factor that dimerizes with ARNT to regulate gene expression, and genes that are regulated by AhR ligands have AhR response elements (AhRE) in their promotor regions.
Briefly, Hepa1 cells were transfected with a reporter construct consisting of AhRE linked to luciferase. The addition of AhR ligands to the transfected cells induces luciferase production that is directly proportional to the amount of AhR activation. We used this reporter system to identify novel compounds with AhR-activating properties. Transfected Hepa1 cells were plated at a density of 1×10^4 cells/well in 100 μL of cell culture media in 96 well plates and grown overnight. […] Following incubation with the compounds, the media was removed, and cells were harvested with lysis buffer. The lysates were transferred to opaque 96 well plates, where they were assayed well-by-well for luciferase activity by injection of luciferase assay substrate with a 2 sec mixing time and 15 sec integration period on a Tropix TR717 microplate luminometer. Data were expressed as fold induction of luciferase relative to vehicle (0.1% DMSO) treated cells.

Sequence of aryl hydrocarbon receptor (AhR) (P30561 10-805): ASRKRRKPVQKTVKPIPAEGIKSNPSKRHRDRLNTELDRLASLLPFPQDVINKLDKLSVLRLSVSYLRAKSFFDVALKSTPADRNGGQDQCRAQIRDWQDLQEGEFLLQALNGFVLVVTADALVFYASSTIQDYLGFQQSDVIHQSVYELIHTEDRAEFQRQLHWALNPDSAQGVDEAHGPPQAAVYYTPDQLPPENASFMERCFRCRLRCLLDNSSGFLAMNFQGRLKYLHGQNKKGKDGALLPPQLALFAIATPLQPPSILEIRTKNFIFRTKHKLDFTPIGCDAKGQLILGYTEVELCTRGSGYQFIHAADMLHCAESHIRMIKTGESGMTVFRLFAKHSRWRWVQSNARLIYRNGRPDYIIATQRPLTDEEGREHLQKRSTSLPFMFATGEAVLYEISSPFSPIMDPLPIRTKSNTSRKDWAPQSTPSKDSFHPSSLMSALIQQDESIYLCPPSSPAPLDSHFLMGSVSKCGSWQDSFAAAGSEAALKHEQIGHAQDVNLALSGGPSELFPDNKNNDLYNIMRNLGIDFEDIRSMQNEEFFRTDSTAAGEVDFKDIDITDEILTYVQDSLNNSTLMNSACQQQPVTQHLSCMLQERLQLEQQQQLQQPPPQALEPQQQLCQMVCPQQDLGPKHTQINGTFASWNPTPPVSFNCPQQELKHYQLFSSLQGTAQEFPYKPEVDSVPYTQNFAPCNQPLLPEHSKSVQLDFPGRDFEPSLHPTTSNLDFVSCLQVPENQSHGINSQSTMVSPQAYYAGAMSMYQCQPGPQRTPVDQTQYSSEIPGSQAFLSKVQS
Sequence of aryl hydrocarbon receptor (AhR) (P53762 whole entry partner): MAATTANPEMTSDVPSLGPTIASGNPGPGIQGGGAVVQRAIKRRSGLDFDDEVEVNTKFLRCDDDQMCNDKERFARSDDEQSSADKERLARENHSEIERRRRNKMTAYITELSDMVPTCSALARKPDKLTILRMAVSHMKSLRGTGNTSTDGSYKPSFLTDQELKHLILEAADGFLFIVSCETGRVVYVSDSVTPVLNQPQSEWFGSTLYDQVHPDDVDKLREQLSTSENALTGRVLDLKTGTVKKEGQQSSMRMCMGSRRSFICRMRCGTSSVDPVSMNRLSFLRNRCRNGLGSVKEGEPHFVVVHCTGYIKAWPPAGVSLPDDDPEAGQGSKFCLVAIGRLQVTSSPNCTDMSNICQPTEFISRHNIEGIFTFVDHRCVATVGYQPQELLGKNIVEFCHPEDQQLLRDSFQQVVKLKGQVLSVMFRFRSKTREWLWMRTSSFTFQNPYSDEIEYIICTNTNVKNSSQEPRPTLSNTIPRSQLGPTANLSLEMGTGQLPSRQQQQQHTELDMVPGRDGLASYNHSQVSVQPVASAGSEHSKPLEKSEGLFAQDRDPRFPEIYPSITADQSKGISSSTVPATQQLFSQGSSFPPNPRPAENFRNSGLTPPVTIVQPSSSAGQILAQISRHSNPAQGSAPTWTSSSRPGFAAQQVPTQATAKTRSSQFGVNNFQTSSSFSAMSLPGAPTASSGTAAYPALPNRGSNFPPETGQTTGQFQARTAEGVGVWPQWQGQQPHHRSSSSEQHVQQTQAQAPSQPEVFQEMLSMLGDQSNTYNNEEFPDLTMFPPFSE

Row | SMILES | Fold @ 1 nM | Fold @ 100 nM | Fold @ 10 uM | Fold relative to benchmark @ 100 nM
1 | O=C(c1ccc(F)c(F)c1)n1c(-c2cccc(C(F)(F)F)c2)nc2cc(Cl)ccc21 [Compound 788] | 1 fold | 2 fold | 19 fold | 0.08 fold
2 | O=C(c1cccc2ccccc12)n1ccc2cc(Cl)ccc21 [Compound 366] | 1 fold | 1 fold | 11 fold | 0.03 fold
3 | O=C(c1ccc(F)c(F)c1)n1c(-c2ccccc2-c2ccccc2)nc2cc(Cl)ccc21 [Compound 766] | 1 fold | 2 fold | 31 fold | 0.08 fold
4 | O=C(c1ccc(F)c(F)c1)n1c(-c2cccc(C(F)(F)F)c2Cl)nc2cc(Cl)ccc21 [Compound 875] | 1 fold | 3 fold | 48 fold | 0.06 fold
5 | O=C(c1ccc(F)c(F)c1)n1c(-c2ccc3ccccc3c2)nc2cc(Cl)ccc21 [Compound 684] | 1 fold | 2 fold | 56 fold | 0.08 fold
6 | COc1ccc(-c2nc3cc(Cl)ccc3n2C(=O)c2ccc(F)c(F)c2)c2ccccc12 [Compound 645] | 1 fold | 1 fold | 15 fold | 0.11 fold
7 | N#Cc1ccc(C(=O)n2c(-c3cccc4ccccc34)nc3cc(Cl)ccc32)cc1 [Compound 688] | 2 fold | 28 fold | 44 fold | 1.08 fold
8 | O=C(c1ccc(F)c(F)c1)n1c(-c2ccnc3ccccc23)nc2cc(Cl)ccc21 [Compound 767] | 1 fold | 2 fold | 23 fold | 0.08 fold
9 | O=C(c1ccc(SC(F)(F)F)cc1)n1c(-c2cccc3ccccc23)nc2cc(Cl)ccc21 [Compound 686] | 1 fold | 24 fold | 31 fold | 0.92 fold
10 | CC1(O)c2cccc3cccc(c23)-c2nc3ccccc3n21 (stereo not drawn) [Compound 525, 7-methyl-7H-benzo[de]benzo[4,5]imidazo[2,1-a]isoquinolin-7-ol] | 1 fold | 5.6 fold | 20 fold | 0.4 fold
11 | COC(=O)c1ccc2c(c1)nc(-c1cccc3ccccc13)n2C(=O)c1ccc(OC(F)(F)F)cc1 [Compound 1342] | 1 fold | 2 fold | 2 fold | 0.07 fold
12 | O=C(c1cccc2ccccc12)n1c(-c2ccccc2)nc2ccc(Cl)cc21 [Compound 491] | 1 fold | 1 fold | 24 fold | 0.03 fold
13 | O=C(c1ccncc1)n1c(-c2ccccc2)nc2cc(Cl)ccc21 [Compound 432] | 1 fold | 1 fold | 7 fold | 0.03 fold
14 | COc1ccc(C(=O)n2c(-c3cccc(C(F)(F)F)c3)nc3cc(Cl)ccc32)cc1 [Compound 764] | 1 fold | 2 fold | 20 fold | 0.08 fold
15 | O=C(c1ccncc1)n1c(-c2ccccc2)nc2ccc(Cl)cc21 [Compound 431] | 1 fold | 1 fold | 8 fold | 0.03 fold
16 | O=C(c1ccccc1)n1c(-c2ccc(F)c3ccccc23)nc2cc(Cl)ccc21 [Compound 863] | 1 fold | 2 fold | 34 fold | 0.07 fold
17 | O=C(c1ccc(F)c(F)c1)n1c(-c2cc3ccccc3o2)nc2ccc(Cl)cc21 [Compound 858] | 1 fold | 10 fold | 73 fold | 0.34 fold
18 | Fc1ccc(Cn2c(-c3cccc4ccccc34)nc3ccc(Cl)cc32)cc1F [Compound 888] | 1 fold | 1 fold | 9 fold | 0.02 fold
19 | O=C(C1CCCCC1)n1c(-c2cc3ccccc3o2)nc2cc(Cl)ccc21 [Compound 859] | 1 fold | 12 fold | 80 fold | 0.41 fold
20 | O=C(c1ccc(F)c(F)c1)n1c(-c2cccc3c2CCCC3)nc2cc(Cl)ccc21 [Compound 779] | 1 fold | 1 fold | 5 fold | 0.04 fold
21 | Cc1ccc(S(=O)(=O)n2c(-c3cccc4ccccc34)nc3ccccc32)cc1 [Compound 579] | 1 fold | 1 fold | 2 fold | 0.07 fold
22 | O=C(c1ccc(F)c(F)c1)n1c(-c2cccc3ccccc23)nc2cc(Cl)c(Cl)cc21 [Compound 692] | 3 fold | 24 fold | 85 fold | 0.92 fold

Next, values leading:

Row | Fold @ 1 nM | Fold @ 100 nM | Fold @ 10 uM | Fold relative to benchmark @ 100 nM | SMILES
23 | 1 fold | 2 fold | 30 fold | 0.07 fold | COC(=O)c1ccc2nc(-c3cccc4ccccc34)n(C(=O)c3ccc(OC(F)(F)F)cc3)c2c1 [Compound 1405]
24 | 1 fold | 1 fold |  | 0.04 fold | COc1ccc(C(=O)n2c(-c3cccc4ccccc34)nc3cc(C)ccc32)cc1 [Compound 702]
25 | 1 fold | 2 fold | 13 fold | 0.07 fold | COC(=O)c1ccc2nc(-c3cccc4ccccc34)n(S(=O)(=O)c3ccc4ccccc4c3)c2c1 [Compound 1384]
26 | 1 fold | 23 fold | 30 fold | 0.88 fold | O=C(c1ccc(F)cc1F)n1c(-c2cccc3ccccc23)nc2cc(Cl)ccc21 [Compound 695]
27 | 1 fold | 22 fold | 24 fold | 0.85 fold | O=C(c1ccc(F)c(F)c1)n1c(-c2cccc3ccccc23)nc2cc(OC(F)(F)F)ccc21 [Compound 699]
28 | 1 fold | 1 fold | 4 fold | 0.03 fold | O=C(c1ccc2nc(-c3cccc4ccccc34)n(Cc3cccc4ccccc34)c2c1)N1CCOCC1 [Compound 1409]
29 | 1 fold | 2 fold | 5 fold | 0.07 fold | COC(=O)c1ccc2c(c1)nc(-c1cccc3ccccc13)n2S(=O)(=O)c1ccc(Cl)cc1 [Compound 1385]
30 | 1 fold | 1 fold | 4 fold | 0.03 fold | CN1CCN(C(=O)c2ccc3nc(-c4cccc5ccccc45)n(S(=O)(=O)c4cccc(F)c4)c3c2)CC1 [Compound 1393]
31 | 1 fold | 1 fold | 4 fold | 0.03 fold | O=C(c1ccc2nc(-c3cccc4ccccc34)n(S(=O)(=O)c3ccc(C(F)(F)F)cc3)c2c1)N1CCOCC1 [Compound 1370]
32 | 1 fold | 21 fold | 29 fold | 0.84 fold | O=C(c1ccc2c(c1)OCCO2)n1c(-c2cccc3ccccc23)nc2cc(Cl)ccc21 [Compound 851]
33 | 1 fold | 22 fold | 33 fold | 0.88 fold | O=C(c1ccc2c(c1)OCCO2)n1c(-c2cccc3ccccc23)nc2cc(Cl)ccc21 [Compound 850]
34 | 1 fold | 1 fold | 4 fold | 0.03 fold | COC(=O)c1ccc2nc(-c3cccc4ccccc34)n(Cc3ccc(F)c(F)c3)c2c1 [Compound 1339]
35 | 1 fold | 2 fold | 6 fold | 0.07 fold | COC(=O)c1ccc2nc(-c3cccc4ccccc34)n(S(=O)(=O)c3ccc(Cl)cc3)c2c1 [Compound 1386]
36 | 1 fold | 1 fold | 9 fold | 0.03 fold | COC(=O)c1ccc2nc(-c3cccc4ccccc34)n(Cc3ccc(Cl)cc3)c2c1 [Compound 1407]
37 | 1 fold | 1 fold | 3 fold | 0.03 fold | CN1CCN(C(=O)c2ccc3c(c2)nc(-c2cccc4ccccc24)n3Cc2ccc(F)c(F)c2)CC1 [Compound 1364]
